# Data taken from ChEMBL document CHEMBL2417443, “Efficient synthesis and antiproliferative activity of novel thioether-substituted flavonoids” (Eur J Med Chem, 2013).
# Assays:
# MCF7 [1] = assay: Cytotoxicity against human MCF7 cells after 72 hrs by MTT assay; type: functional, cell-based; details: MCF7, 72 h
# HEp-2 [2] = assay: Cytotoxicity against human Hep2 cells after 72 hrs by MTT assay; type: functional, cell-based; details: HEp-2, 72 h
# [3] = Cytotoxicity against human MDA-MB-435S cells after 72 hrs by MTT assay; type: functional, cell-based
# SW480 [4] = assay: Cytotoxicity against human SW480 cells after 72 hrs by MTT assay; type: functional, cell-based; details: SW480, 72 h
# [5] = Cytotoxicity against human LM7 cells after 72 hrs by MTT assay; type: functional, cell-based; details: LM7, 72 h
# HeLa [6] = assay: Cytotoxicity against human HeLa cells after 72 hrs by MTT assay; type: functional, cell-based
# HeLa [7] = assay: Ratio of 5-fluorouracil IC50 to compound IC50 for human HeLa cells; type: functional
# MCF7 [8] = assay: Ratio of 5-fluorouracil IC50 to compound IC50 for human MCF7 cells; type: functional
# HEp-2 [9] = assay: Ratio of 5-fluorouracil IC50 to compound IC50 for human Hep2 cells; type: functional
# [10] = Ratio of 5-fluorouracil IC50 to compound IC50 for human MDA-MB-435S cells; type: functional
# SW480 [11] = assay: Ratio of 5-fluorouracil IC50 to compound IC50 for human SW480 cells; type: functional
# [12] = Ratio of 5-fluorouracil IC50 to compound IC50 for human LM7 cells; type: functional
# SW480 [13] = assay: Cell cycle arrest in human SW480 cells assessed as accumulation at G2/M phase after 48 hrs by propidium iodide staining-based flow cytometry; type: functional
# SW480 [14] = assay: Cell cycle arrest in human SW480 cells assessed as accumulation at G2/M phase at 1.2 uM after 48 hrs by propidium iodide staining-based flow cytometry (reference value: 13.99 +/- 0.35%); type: functional
# SW480 [15] = assay: Cell cycle arrest in human SW480 cells assessed as accumulation at G2/M phase at 1 uM after 48 hrs by propidium iodide staining-based flow cytometry (reference value: 13.99 +/- 0.35%); type: functional
# SW480 [16] = assay: Cell cycle arrest in human SW480 cells assessed as accumulation at G2/M phase at 0.8 uM after 48 hrs by propidium iodide staining-based flow cytometry (reference value: 13.99 +/- 0.35%); type: functional
# SW480 [17] = assay: Cell cycle arrest in human SW480 cells assessed as accumulation at S phase at 1.2 uM after 48 hrs by propidium iodide staining-based flow cytometry (reference value: 14.01 +/- 0.86%); type: functional
# SW480 [18] = assay: Cell cycle arrest in human SW480 cells assessed as accumulation at S phase at 1 uM after 48 hrs by propidium iodide staining-based flow cytometry (reference value: 14.01 +/- 0.86%); type: functional
# SW480 [19] = assay: Cell cycle arrest in human SW480 cells assessed as accumulation at S phase at 0.8 uM after 48 hrs by propidium iodide staining-based flow cytometry (reference value: 14.01 +/- 0.86%); type: functional
# SW480 [20] = assay: Cell cycle arrest in human SW480 cells assessed as accumulation at G0/G1 phase at 1.2 uM after 48 hrs by propidium iodide staining-based flow cytometry (reference value: 72.00 +/- 4.30%); type: functional
# SW480 [21] = assay: Cell cycle arrest in human SW480 cells assessed as accumulation at G0/G1 phase at 0.8 uM after 48 hrs by propidium iodide staining-based flow cytometry (reference value: 72.00 +/- 4.30%); type: functional
# SW480 [22] = assay: Cell cycle arrest in human SW480 cells assessed as accumulation at G0/G1 phase at 1 uM after 48 hrs by propidium iodide staining-based flow cytometry (reference value: 72.00 +/- 4.30%); type: functional
Compound,IC50 (MCF7 [1]) [µM],IC50 (HEp-2 [2]) [µM],IC50 [3] [µM],IC50 (SW480 [4]) [µM],IC50 [5] [µM],IC50 (HeLa [6]) [µM],other results
Cc1ccc2oc(CSc3nnc(N)s3)cc(=O)c2c1,> 25,> 25,> 25,> 25,> 25,> 25,–
COC(=O)Nc1ccc2c(CSc3nc(C)cc(C)n3)cc(=O)oc2c1,9.9,8,19,13.2,8.2,14.3,–
O=c1cc(CSc2nc3ccccc3o2)c2ccc(O)c(O)c2o1,> 25,> 25,> 25,> 25,> 25,> 25,–
Cc1ccc2oc(CSc3nnc(C)o3)cc(=O)c2c1,> 25,> 25,> 25,> 25,> 25,> 25,–
Cc1nnc(SCc2cc(=O)c3cc(Cl)ccc3o2)s1,> 25,> 25,> 25,> 25,> 25,> 25,–
Cc1cc(C)n2nc(SCn3cnc4c(Cl)cccc4c3=O)nc2n1,> 25,> 25,> 25,> 25,> 25,> 25,–
Cc1nnc(SCc2coc3ccccc3c2=O)o1,4.6,3.8,1.2,0.79,3.5,1.4,Ratio IC50 (HeLa [7]): 0.7; Ratio IC50 (MCF7 [8]): 0.5; Ratio IC50 (HEp-2 [9]): 33.9; Ratio IC50 [10]: 8.3; Ratio IC50 (SW480 [11]): 2.3; Ratio IC50 [12]: 6.6
Cc1cc(C)nc(SCc2cc(=O)c3ccccc3o2)n1,> 25,> 25,> 25,> 25,> 25,> 25,–
Cc1cc(O)cc2oc(=O)cc(CSc3nc4ccccc4s3)c12,> 25,> 25,> 25,> 25,> 25,> 25,–
O=c1cc(SCn2cnc3c(Cl)cccc3c2=O)sc2ccccc12,> 25,> 25,> 25,> 25,> 25,> 25,–
Cc1cc(O)cc2oc(=O)cc(CSc3nc4ccccc4o3)c12,> 25,> 25,> 25,> 25,> 25,> 25,–
Nc1nnc(SCc2coc3ccccc3c2=O)s1,> 25,1.5,0.95,> 25,0.73,> 25,–
O=c1cc(CSc2nc3ccccc3s2)oc2ccc(Cl)cc12,> 25,> 25,> 25,> 25,> 25,> 25,–
Nc1nc(SCc2coc3ccccc3c2=O)n[nH]1,> 25,21.3,8.3,21.4,16.9,> 25,–
Cc1nnc(SCc2coc3ccccc3c2=O)s1,6.7,2.9,0.63,1,0.43,2.3,Activity (SW480 [13]): Dose-dependent effect; Activity (SW480 [14]): 38.03%; Activity (SW480 [15]): 26.74%; Activity (SW480 [16]): 22.03%; Activity (SW480 [17]): 19.13%; Activity (SW480 [18]): 18.27%; Activity (SW480 [19]): 15.47%; Activity (SW480 [20]): 42.84%; Activity (SW480 [21]): 62.5%; Activity (SW480 [22]): 54.99%; Ratio IC50 (HeLa [7]): 0.7; Ratio IC50 (MCF7 [8]): 0.5; Ratio IC50 (HEp-2 [9]): 33.9; Ratio IC50 [10]: 8.3; Ratio IC50 (SW480 [11]): 2.3; Ratio IC50 [12]: 6.6
Cc1cc(C)n2nc(SCc3nnc(SCc4cc(=O)oc5cc(O)cc(C)c45)s3)nc2n1,> 25,> 25,> 25,> 25,> 25,> 25,–
O=c1c(CSc2cc(=O)c3ccccc3s2)coc2ccccc12,5.4,1.4,1.7,3.6,2.8,2.6,Ratio IC50 (HeLa [7]): 0.7; Ratio IC50 (MCF7 [8]): 0.5; Ratio IC50 (HEp-2 [9]): 33.9; Ratio IC50 [10]: 8.3; Ratio IC50 (SW480 [11]): 2.3; Ratio IC50 [12]: 6.6
Nc1nnc(SCc2cc(=O)oc3c2ccc2ccccc23)s1,> 25,> 25,> 25,> 25,> 25,> 25,–
Cc1cc(O)cc2oc(=O)cc(CSc3nc4ccccc4[nH]3)c12,> 25,> 25,> 25,> 25,> 25,> 25,–
O=c1c2cccc(Cl)c2ncn1CSc1nc2ccccc2o1,> 25,> 25,> 25,> 25,> 25,> 25,–
Cc1cc(C)n2nc(SCc3nnc(SCc4cc(=O)c5ccccc5o4)n3-c3ccccc3)nc2n1,> 25,> 25,> 25,> 25,> 25,> 25,–
Cc1nnc(Sc2coc3ccccc3c2=O)s1,> 50,> 50,> 50,> 50,> 50,> 50,–
